System: C57/BL male mice
Test: Septic shock assay (LPS plus galactosamine challenge)
Assay type: in vivo, mouse
Details: 60, 20, 6 and 2 mg/kg daily IP for three days, first dose 30 minutes after challenge; dose of the result not stated
Procedure: Groups of 10 C57/BL male mice weighing 18 to 20 g were administered a test compound, 1-carboxynaphthalene-1-carboxamide at the doses of 60, 20, 6 and 2 mg/kg, daily, by intraperitoneal (IP) injection for three consecutive days. Each animal was first challenged with lipopolysaccharide (LPS, from E. Coli, LD100 of 20 mg/animal IV) plus galactosamine (20 mg/animal IV). The first dose of test compound in a suitable vehicle was given 30 minutes after challenge, and the second and third doses were given 24 hours later on day 2 and day 3 respectively, with only the surviving animals receiving the second or third dose of the test compound. Mortality was recorded every 12 hours after challenge for the three-day testing period. 1-Carboxy-naphthalene-1-carboxamide provided a protection against mortality from septic shock of about 40%.

Q: For `NC(=O)c1cccc2cccc(C(=O)O)c12` [1-Carboxy-naphthalene-1-carboxamide, 8-carboxynaphthalene-1-carboxamide], which “protection against mortality from septic shock” value is on record?
A: about 40%

From patent US6395749B1, “Carboxamide compounds, methods, and compositions for inhibiting PARP activity” (Guilford Pharmaceuticals Inc., priority 1998, dated 2002)
